Data: US20190062305A1, “PYRIDYL OR PYRAZINYL COMPOUNDS CARRYING A METHYL-BOUND ALPHA-AMINO ACID AMIDE GROUP” (ABBVIE DEUTSCHLAND GMBH & CO. KG, priority 2015, published 2019)
Structures can show the parent of a compound that is named as a salt.

How the values were obtained:
[1] = target: T1, 5-HT2C receptor (Homo sapiens, UniProt P28335); assay: Human 5-HT2C functional assay (beta-arrestin2 recruitment, U2OS_HTR2C_β-Arrestin cells); format: cell-based; settings: for EC50: beta-arrestin2 recruitment, U2OS_HTR2C_β-Arrestin cells, 1.5 h incubation, read-out: EC50 5-HT2C (potency in functional assay); for Emax / % efficacy: relative efficacy vs response to 10 μM 5-HT or maximal 5-HT effect (100%)
T1 construct: host or cells: U2OS
T1 sequence (P28335 33-458): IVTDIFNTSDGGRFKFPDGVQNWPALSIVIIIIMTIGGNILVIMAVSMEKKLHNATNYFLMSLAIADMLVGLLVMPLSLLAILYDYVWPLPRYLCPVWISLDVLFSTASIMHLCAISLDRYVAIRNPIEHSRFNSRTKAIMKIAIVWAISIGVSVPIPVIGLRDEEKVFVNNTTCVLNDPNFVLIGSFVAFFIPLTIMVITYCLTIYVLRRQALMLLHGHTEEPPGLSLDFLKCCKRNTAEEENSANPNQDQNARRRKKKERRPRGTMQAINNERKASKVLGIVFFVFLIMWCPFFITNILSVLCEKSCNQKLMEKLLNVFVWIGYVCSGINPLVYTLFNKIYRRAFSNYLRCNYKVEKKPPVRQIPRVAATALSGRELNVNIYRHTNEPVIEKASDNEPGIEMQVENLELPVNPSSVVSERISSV
T1 sequence (P32121 whole entry partner): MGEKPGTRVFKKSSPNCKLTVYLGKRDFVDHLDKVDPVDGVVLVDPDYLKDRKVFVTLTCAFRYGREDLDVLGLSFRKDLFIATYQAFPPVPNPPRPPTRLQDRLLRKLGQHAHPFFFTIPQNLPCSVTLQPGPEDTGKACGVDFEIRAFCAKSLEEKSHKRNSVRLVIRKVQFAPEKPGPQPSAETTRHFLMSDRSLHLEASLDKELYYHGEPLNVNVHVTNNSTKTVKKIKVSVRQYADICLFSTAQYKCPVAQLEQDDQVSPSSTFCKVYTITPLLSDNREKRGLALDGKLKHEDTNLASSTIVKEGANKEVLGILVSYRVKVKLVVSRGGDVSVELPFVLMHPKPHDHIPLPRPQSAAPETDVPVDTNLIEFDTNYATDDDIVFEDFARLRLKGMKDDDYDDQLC
Procedure, shortened: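 U2OS cells expressing HTR2C with β-galactosidase complementation, switched to 1% serum medium 24 h post-plating, were treated next day with compound for 1.5 h; chemiluminescence read. Response expressed as % of 10 µM 5-HT or maximal 5-HT effect; EC50 from 4-parameter variable-slope fit.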

[2] = Metabolic stability in human liver microsomes, unbound intrinsic clearance (Cl int/fu mic); format: in vitro ADME; settings: 0.5 μM compound, NADPH; for CLint scaled at 0.5 μM: human, liver microsomes, pH 7.4, human liver microsomes 0.25 mg/mL, read-out: Cl int, mic unb. (h) [l/h/kg] (unbound intrinsic clearance, human); for Cl int, mic unb. (h) [l/h/kg] (unbound intrinsic clearance, human): human liver microsomes 0.25 mg/mL
Procedure, shortened: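 Compound (0.5 µM) was incubated with human liver microsomes (0.25 mg/mL) in pH 7.4 phosphate buffer at 37 °C with 1.0 mM NADPH, sampling from 0–30 min. Depletion was followed by LC-MS/MS, and CLint was derived from first-order t1/2 per mg protein. Microsomal unbound fraction came from 4 h equilibrium dialysis at 37 °C, giving CLint/fu mic.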

SMILES | EC50 [1] [nM] | Emax [1] [%] | CLint scaled at 0.5 μM [2] [L/h/kg] | % efficacy [1] | Cl int, mic unb. (h) [l/h/kg] (unbound intrinsic clearance, human) [2]
COc1nc(N2CCC3C(C2)C3(F)F)c(F)cc1CNC(=O)[C@@H]1CCCN1 (stereo partly drawn) [Example 184, (2S)—N-[[6-(7,7-Difluoro-4-azabicyclo[4.1.0]heptan-4-yl)-5-fluoro-2-methoxy-3-pyridyl]methyl]pyrrolidine-2-carboxamide; 2,2,2-trifluoroacetic Acid] | 20 to 200 | > 70 | 5 to 50 |  | 
COc1nc(C2=CCC(OC)CC2)c(F)cc1CNC(=O)[C@@H]1CCCN1 (stereo partly drawn) [Example 167, (2S)—N-[[5-Fluoro-2-methoxy-6-(4-methoxycyclohexen-1-yl)-3-pyridyl]methyl]-pyrrolidine-2-carboxamide] | 200 to 1000 | > 70 | < 5 |  | 
COc1nc(OC2CCC(F)(F)C2)c(F)cc1CNC(=O)[C@@H]1CCCN1C (stereo partly drawn) [Example 23, (2S)—N-[[6-(3,3-Difluorocyclopentoxy)-5-fluoro-2-methoxy-3-pyridyl]methyl]-1-methyl-pyrrolidine-2-carboxamide; Fumaric Acid] | < 20 | > 70 | < 5 |  | 
COc1nc(OC2CCC(OC)CC2)c(F)cc1CNC(=O)[C@@H]1CCCN1 (stereo partly drawn) [Example 12, (2S)—N-[[5-Fluoro-2-methoxy-6-(4-methoxycyclohexoxy)-3-pyridyl]methyl]-pyrrolidine-2-carboxamide; Fumaric Acid] | 20 to 200 | > 70 | < 5 |  | 
COc1nc(N2CCC(F)(F)C(C(F)F)C2)c(F)cc1CNC(=O)[C@@H]1CCCN1 (stereo partly drawn) [Example 190, (2S)—N-[[6-[3-(Difluoromethyl)-4,4-difluoro-1-piperidyl]-5-fluoro-2-methoxy-3-pyridyl]methyl]pyrrolidine-2-carboxamide Hydrochloride] | < 20 | > 70 | < 5 |  | 
COc1nc(NCC2CC(F)(F)C2)c(F)cc1CNC(=O)[C@@H]1CCCN1 [Example 136, (2S)—N-[[6-[(3,3-Difluorocyclobutyl)methylamino]-5-fluoro-2-methoxy-3-pyridyl]methyl]pyrrolidine-2-carboxamide; 2,2,2-trifluoroacetic Acid] | < 20 | > 70 | < 5 |  | 
COc1nc(OCC2CC(F)(F)C2(F)F)c(F)cc1CN(C)C(=O)[C@@H]1CCCN1C (stereo partly drawn) [Example 103, (2S)—N-[[5-Fluoro-2-methoxy-6-[(2,2,3,3-tetrafluorocyclobutyl)methoxy]-3-pyridyl]methyl]-N,1-dimethyl-pyrrolidine-2-carboxamide Hydrochloride] | 20 to 200 | 50 to 70 | < 5 |  | 
COc1nc(OCC2CCC(F)(F)C2)c(F)cc1CNC(=O)[C@@H]1CCCN1 (stereo partly drawn) [Example 6, (2S)—N-[[6-[(3,3-Difluorocyclopentyl)methoxy]-5-fluoro-2-methoxy-3-pyridyl]-methyl]pyrrolidine-2-carboxamide; Fumaric Acid] | < 20 | > 70 | < 5 |  | 
COc1nc(OC2CCC(C(C)(F)F)CC2)c(F)cc1CNC(=O)[C@@H]1CCCN1 (single isomer, unassigned; isomer 1) [Example 73] | 200 to 1000 | > 70 | 5 to 50 |  | 
COc1nc(C2CCC(OC)CC2)c(F)cc1CNC(=O)[C@@H]1CCCN1 (stereo partly drawn) [Example 172, (2S)—N-[[5-Fluoro-2-methoxy-6-(4-methoxycyclohexyl)-3-pyridyl]methyl]-pyrrolidine-2-carboxamide] | 20 to 200 | > 70 | < 5 |  | 
COc1nc(C2CCOCC2)c(F)cc1CNC(=O)[C@@H]1CCCN1 [Example 159, (2S)—N-[(5-Fluoro-2-methoxy-6-tetrahydropyran-4-yl-3-pyridyl)methyl]-pyrrolidine-2-carboxamide Hydrochloride] | 200 to 1000 | > 70 | < 5 |  | 
COc1nc(OC(C)C(F)(F)C(F)F)c(F)cc1CNC(=O)[C@@H]1CCCN1 (stereo partly drawn) [Example 53, (2S)—N-[[5-Fluoro-2-methoxy-6-(2,2,3,3-tetrafluoro-1-methyl-propoxy)-3-pyridyl]-methyl]pyrrolidine-2-carboxamide; Succinic Acid] | < 20 | > 70 | < 5 |  | 
COc1nc(OCC2CC3C(C2)C3(F)F)c(F)cc1CNC(=O)[C@@H]1CCCN1 (stereo partly drawn) [Example 56, (2S)—N-[[6-[(6,6-Difluoro-3-bicyclo[3.1.0]hexanyl)methoxy]-5-fluoro-2-methoxy-3-pyridyl]methyl]pyrrolidine-2-carboxamide; 2,2,2-trifluoroacetic Acid] | < 20 | > 70 | 5 to 50 |  | 
COc1nc(N2CC(C)OC(C)C2)c(F)cc1CNC(=O)[C@@H]1CCCN1 (stereo partly drawn) [Example 174, (2S)—N-[[6-(2,6-Dimethylmorpholin-4-yl)-5-fluoro-2-methoxy-3-pyridyl]methyl]-pyrrolidine-2-carboxamide; 2,2,2-trifluoroacetic Acid] | 200 to 1000 | 30 to 50 | < 5 |  | 
COc1nc(OCC2(C(F)F)CC2)c(F)cc1CNC(=O)[C@@H]1CCCN1 [Example 97, (2S)—N-[[6-[[1-(Difluoromethyl)cyclopropyl]methoxy]-5-fluoro-2-methoxy-3-pyridyl]methyl]pyrrolidine-2-carboxamide; (2S,3S)-2,3-dihydroxybutanedioic Acid] | < 20 | > 70 | < 5 |  | 
COc1nc(N2CCC(F)C2)c(F)cc1CNC(=O)[C@@H]1CCCN1 (stereo partly drawn) [Example 162, (2S)—N-[[5-Fluoro-6-(3-Fluoropyrrolidin-1-yl)-2-methoxy-3-pyridyl]methyl]-pyrrolidine-2-carboxamide; 2,2,2-trifluoroacetic Acid] | 20 to 200 | 50 to 70 | 5 to 50 |  | 
COc1nc(OC2CCC(C(C)(F)F)CC2)c(F)cc1CNC(=O)[C@@H]1CCCN1 (single isomer, unassigned; isomer 2) [Example 74] | < 20 |  |  | +++ (>70%) | ++ (from 5 to <50 l/h/kg)
COc1nc(N2CCCC(F)(F)C2)c(F)cc1CNC(=O)[C@@H]1CCCN1 [Example 156, (2S)—N-[[6-(3,3-Difluoro-1-piperidyl)-5-fluoro-2-methoxy-3-pyridyl]methyl]-pyrrolidine-2-carboxamide; 2,2,2-trifluoroacetic Acid] | 20 to 200 | 50 to 70 | < 5 |  | 
COc1nc(OC2CC(OC)C2)c(F)cc1CNC(=O)[C@@H]1CCCN1 (stereo partly drawn) [Example 104, (2S)—N-[[5-Fluoro-2-methoxy-6-(3-methoxycyclobutoxy)-3-pyridyl]methyl]-pyrrolidine-2-carboxamide Hydrochloride] | < 20 | > 70 | < 5 |  | 
COc1nc(N2CCOC(c3ccccc3)C2)c(F)cc1CNC(=O)[C@@H]1CCCN1 (stereo partly drawn) [Example 173, (2S)—N-[[5-Fluoro-2-methoxy-6-(2-phenylmorpholin-4-yl)-3-pyridyl]methyl]-pyrrolidine-2-carboxamide; 2,2,2-trifluoroacetic Acid] | 200 to 1000 | 50 to 70 | 5 to 50 |  | 
COc1nc(NC2CCC(C(F)(F)F)CC2)c(F)cc1CNC(=O)[C@@H]1CCCN1 (stereo partly drawn) [Example 130, (2S)—N-[[5-Fluoro-2-methoxy-6-[[4-(trifluoromethyl)cyclohexyl]amino]-3-pyridyl]methyl]pyrrolidine-2-carboxamide] | < 20 | > 70 | 5 to 50 |  | 
COc1nc(N[C@H]2CC[C@H](C(F)(F)F)CC2)c(F)cc1CNC(=O)[C@@H]1CCCN1.Cl [Example 144, (2S)—N-[[5-Fluoro-2-methoxy-6-[[trans-4-(trifluoromethyl)cyclohexyl]amino]-3-pyridyl]methyl]pyrrolidine-2-carboxamide Hydrochloride] | 20 to 200 |  |  | +++ (>70%) | ++ (from 5 to <50 l/h/kg)
COc1nc(OC2CCCC2F)c(F)cc1CNC(=O)[C@@H]1CCCN1 (stereo partly drawn) [Example 93, (2S)—N-[[5-Fluoro-6-(2-fluorocyclopentoxy)-2-methoxy-3-pyridyl]methyl]-pyrrolidine-2-carboxamide; 2,2,2-trifluoroacetic Acid] | < 20 | > 70 | < 5 |  | 
COc1nc(NC2CCC(C(F)(F)F)CC2)c(F)cc1CN(C)C(=O)[C@@H]1CCCN1 (mixture of isomers) [Example 157, (2S)—N-[[5-fluoro-2-methoxy-6-[[4-(trifluoromethyl)cyclohexyl]amino]-3-pyridyl]methyl]-N-methyl-pyrrolidine-2-carboxamide; 2,2,2-trifluoroacetic Acid] | 200 to 1000 | 50 to 70 | 5 to 50 |  | 
COc1nc(OCC2(C(F)F)CC2)c(F)cc1CNC(=O)[C@@H]1CCCN1C [Example 96, (2S)—N-[[6-[[1-(Difluoromethyl)cyclopropyl]methoxy]-5-fluoro-2-methoxy-3-pyridyl]methyl]-1-methyl-pyrrolidine-2-carboxamide; (2S,3S)-2,3-dihydroxybutanedioic Acid] | < 20 | > 70 | < 5 |  | 
